Consider 43 molecules from patent publication US11524940B1, “Inhibitors of cysteine proteases and methods of use thereof” (priority 2020, dated 2022).

The assay deals with 229E Mpro (Human coronavirus 229E (HCoV-229E), UniProt P0C6X1). As to the kind of experiment: 229E Mpro activity. The assay is classed as biochemical.

pEC50: −log10 of the molar value. Read-outs that look alike come from different tables or passages of the source.

Chain of 229E Mpro (P0C6X1 2966-3267 limits assumed): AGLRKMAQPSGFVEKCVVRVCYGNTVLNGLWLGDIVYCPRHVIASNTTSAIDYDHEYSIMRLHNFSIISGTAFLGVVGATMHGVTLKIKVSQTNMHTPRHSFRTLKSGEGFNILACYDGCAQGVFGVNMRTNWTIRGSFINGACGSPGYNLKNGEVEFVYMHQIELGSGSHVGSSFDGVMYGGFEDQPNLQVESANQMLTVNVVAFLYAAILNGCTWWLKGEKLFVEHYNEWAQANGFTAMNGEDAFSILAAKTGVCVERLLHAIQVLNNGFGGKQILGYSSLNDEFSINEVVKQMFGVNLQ
Procedure: Compounds are assayed using standard methods to assess compound activity and IC50. […] The assay buffer contains 20 mM of Tris-HCl (pH 7.3), 100 mM of NaCl, 1 mM of EDTA, 5mM of TCEP and 0.1% BSA.

As to `COc1cccc2[nH]c(C(=O)N[C@@H](CC(C)C)C(=O)NC(C#N)Cc3cc(=O)[nH]c4ccccc34)cc12` (mixture of isomers) [Compound 237, N-[(1S)-1-[[1-cyano-2-(2-oxo-1H-quinolin-4-yl)ethyl]carbamoyl]-3-methyl-butyl]-4-methoxy-1H-indole-2-carboxamide], the pEC50 (commonly −log10 of the EC50, conventionally taken in molar units) (read-out: 229E Mpro EC50) is below 4.52.

Consider `COc1cccc2[nH]c(C(=O)N[C@@H](CC(C)C)C(=O)NC(C#N)Cc3cc[nH]n3)cc12` (mixture of isomers) [Compound 241, N-[(1S)-1-[[1-cyano-2-(1H-pyrazol-3-yl)ethyl]carbamoyl]-3-methyl-butyl]-4-methoxy-1H-indole-2-carboxamide], for which the pEC50 (read-out: 229E Mpro EC50) is below 4.52.

Take `COc1cccc2[nH]c(C(=O)N[C@@H](CC(C)C)C(=O)NC(C#N)Cc3n[nH]c4ccccc34)cc12` (mixture of isomers) [Compound 245, N-[(1S)-1-[[1-cyano-2-(1H-indazol-3-yl)ethyl]carbamoyl]-3-methyl-butyl]-4-methoxy-1H-indole-2-carboxamide]: the pEC50 (read-out: 229E Mpro EC50) was below 4.52.

As for `COc1cccc2[nH]c(C(=O)N[C@@H](CC(C)C)C(=O)NC(C#N)CC3CC(=O)Nc4ccccc43)cc12` (mixture of isomers) [Compound 249, N-[(1S)-1-[[1-cyano-2-(2-oxo-3,4-dihydro-1H-quinolin-4-yl)ethyl]carbamoyl]-3-methyl-butyl]-4-methoxy-1H-indole-2-carboxamide], the pEC50 (read-out: 229E Mpro EC50) was below 4.52.

Turning to `COc1cccc2[nH]c(C(=O)N[C@@H](CC3CC3)C(=O)NC(C#N)CN3CCNC3=O)cc12` (mixture of isomers) [Compound 493, N-[(1S)-2-[[1-cyano-2-(2-oxoimidazolidin-1-yl)ethyl]amino]-1-(cyclopropylmethyl)-2-oxo-ethyl]-4-methoxy-1H-indole-2-carboxamide], the pEC50 (read-out: 229E Mpro EC50) was below 4.52.

As to `COc1cccc2[nH]c(C(=O)N[C@@H](CC(C)C)C(=O)N[C@@H](C[C@@H]3CCNC3=O)C(C#N)NC(C)(C)C)cc12` (single isomer, unassigned) [323 (Isomer 1)], the pEC50 (read-out: 229E Mpro EC50) was above 5.70.

For `COc1cccc2[nH]c(C(=O)N[C@@H](CC(C)C)C(=O)N[C@@H](C[C@@H]3CCNC3=O)C(C#N)NC(C)(C)C)cc12` (single isomer, unassigned) [323 (Isomer 2)], the pEC50 (read-out: 229E Mpro EC50) was above 5.70.

`COc1cccc2[nH]c(C(=O)N[C@@H](CC(C)C)C(=O)N[C@@H](C[C@@H]3CCNC3=O)C(C#N)N3CCCC3)cc12` (single isomer, unassigned) [331 (Isomer 1)]: the pEC50 (read-out: 229E Mpro EC50) was above 5.70.

Regarding `COc1cccc2[nH]c(C(=O)N[C@@H](CC(C)C)C(=O)N[C@@H](C[C@@H]3CCNC3=O)C(C#N)N3CCCC3)cc12` (single isomer, unassigned) [331 (Isomer 2)], the pEC50 (read-out: 229E Mpro EC50) was above 5.70.

Take `COc1cccc2[nH]c(C(=O)N3C[C@H](c4ccccc4)C[C@H]3C(=O)N[C@@H](C[C@@H]3CCNC3=O)C(O)C#N)cc12` (single isomer, unassigned) [345 (Isomer 1)]: the pEC50 (read-out: 229E Mpro EC50) is above 5.70.

On to `COc1cccc2[nH]c(C(=O)N3C[C@H](c4ccccc4)C[C@H]3C(=O)N[C@@H](C[C@@H]3CCNC3=O)C(O)C#N)cc12` (single isomer, unassigned) [345 (Isomer 2)], for which the negative logarithm of the EC50 (pEC50) (read-out: 229E Mpro EC50) was above 5.70.

For the molecule `CC(C)C[C@H](NC(=O)CC(C)(O)c1ccc(Cl)cc1)C(=O)N[C@H](C#N)C[C@@H]1CCNC1=O` (single isomer, unassigned) [365 (Isomer 1)], the pEC50 (read-out: 229E Mpro EC50) was 5.00 to 5.70.

Consider `CC(C)C[C@H](NC(=O)CC(C)(O)c1ccc(Cl)cc1)C(=O)N[C@H](C#N)C[C@@H]1CCNC1=O` (single isomer, unassigned) [365 (Isomer 2)], for which the pEC50 (read-out: 229E Mpro EC50) is 5.00 to 5.70.

As for `COc1cccc2[nH]c(C(=O)N3CC(C45CC(C4)C5)C[C@H]3C(=O)N[C@H](C#N)C[C@@H]3CCNC3=O)cc12` (single isomer, unassigned) [385 (Isomer 1)], for the setting “read-out: 229E Mpro EC50”, the pEC50 is above 5.70.

In the case of `COc1cccc2[nH]c(C(=O)N3CC(C45CC(C4)C5)C[C@H]3C(=O)N[C@H](C#N)C[C@@H]3CCNC3=O)cc12` (single isomer, unassigned) [385 (Isomer 2)], where the note is “read-out: 229E Mpro EC50”, the pEC50 was above 5.70.

Turning to `COc1cccc2[nH]c(C(=O)N3CC4(CCCCC4)CC3C(=O)N[C@H](C#N)C[C@@H]3CCNC3=O)cc12` (single isomer, unassigned) [389A (Isomer 1)], the pEC50 (read-out: 229E Mpro EC50) was above 5.70.

For `COc1cccc2[nH]c(C(=O)N3CC(C)(C)C[C@H]3C(=O)N[C@H](C#N)C[C@@H]3CCNC3=O)cc12` (single isomer, unassigned) [395 (Isomer 1)], the pEC50 (read-out: 229E Mpro EC50) is above 5.70.

On to `COc1cccc2[nH]c(C(=O)N3CC(C)(C)C[C@H]3C(=O)N[C@H](C#N)C[C@@H]3CCNC3=O)cc12` (single isomer, unassigned) [395 (Isomer 2)], for which the negative-log EC50 (pEC50) (read-out: 229E Mpro EC50) was above 5.70.

For `COc1cccc2[nH]c(C(=O)N3CC4(CCC4)CC3C(=O)N[C@H](C#N)C[C@@H]3CCNC3=O)cc12` (single isomer, unassigned) [399A (Isomer 1)], under “read-out: 229E Mpro EC50”, the pEC50 is above 5.70.

For `COc1cccc2[nH]c(C(=O)N3CC4(CCCC4)C[C@H]3C(=O)N[C@H](C#N)C[C@@H]3CCNC3=O)cc12` (single isomer, unassigned) [401 (Isomer 1)], for the setting “read-out: 229E Mpro EC50”, the pEC50 was above 5.70.

For the molecule `COc1cccc2[nH]c(C(=O)N3CC4(CCCC4)C[C@H]3C(=O)N[C@H](C#N)C[C@@H]3CCNC3=O)cc12` (single isomer, unassigned) [401 (Isomer 2)], for the setting “read-out: 229E Mpro EC50”, the pEC50 was 5.00 to 5.70.

Regarding `N#C[C@H](C[C@@H]1CCNC1=O)NC(=O)[C@@H](CC1CC1)n1cccc(NCC(F)(F)F)c1=O` (single isomer, unassigned) [467 (Isomer 1)], where the note is “read-out: 229E Mpro EC50”, the pEC50 is 5.00 to 5.70.

For the molecule `N#C[C@H](C[C@@H]1CCNC1=O)NC(=O)[C@@H](CC1CC1)n1cccc(NCC(F)(F)F)c1=O` (single isomer, unassigned) [467 (Isomer 2)], the pEC50 (read-out: 229E Mpro EC50) was below 4.52.

On to `CC(C)(C)OC(=O)N1CCCCC12CCN(C(CC1CC1)C(=O)N[C@H](C#N)C[C@@H]1CCNC1=O)C2=O` (single isomer, unassigned) [473 (Isomer 2)], for which the pEC50 (read-out: 229E Mpro EC50) is below 4.52.

Regarding `COc1cccc2[nH]c(C(=O)N[C@@H](CC3CC3)C(=O)N[C@@]3(C#N)C[C@H]4CC[C@@H]3[C@H]3C(=O)NC(=O)[C@@H]43)cc12` (single isomer, unassigned) [489 (Isomer 1)], under “read-out: 229E Mpro EC50”, the pEC50 is below 4.52.

In the case of `COc1cccc2[nH]c(C(=O)N[C@@H](CC3CC3)C(=O)N[C@H](C#N)C[C@@H]3CCCNC3=O)cc12` (single isomer, unassigned) [491 (Isomer 1)], where the note is “read-out: 229E Mpro EC50”, the pEC50 was above 5.70.

With `COc1cccc2[nH]c(C(=O)N[C@@H](CC3CC3)C(=O)N[C@@H](C#N)C[C@@H]3CCCNC3=O)cc12` (single isomer, unassigned) [491 (Isomer 2)], the pEC50 (read-out: 229E Mpro EC50) is below 4.52.

Consider `COc1cccc2[nH]c(C(=O)N[C@H](CC3CC3)C(=O)N[C@@H](C#N)C[C@@H]3CCCNC3=O)cc12` (single isomer, unassigned) [491 (Isomer 4)], for which the pEC50 (read-out: 229E Mpro EC50) is above 5.70.

As for `N#C[C@]1(NC(=O)[C@H](CC2CC2)NC(=O)OCc2ccccc2)C[C@H]2CC[C@@H]1[C@H]1C(=O)NC(=O)[C@@H]21` (single isomer, unassigned) [495 (Isomer 1)], the pEC50 (read-out: 229E Mpro EC50) was below 4.52.

`CC(C)(C)OC(=O)Nc1cccn([C@H](CC2CC2)C(=O)N[C@H](C#N)C[C@@H]2CCNC2=O)c1=O` (single isomer, unassigned) [505 (Isomer 1)]: the pEC50 (read-out: 229E Mpro EC50) was below 4.52.

Consider `CC(C)(C)OC(=O)Nc1cccn([C@@H](CC2CC2)C(=O)N[C@H](C#N)C[C@@H]2CCNC2=O)c1=O` (single isomer, unassigned) [505 (Isomer 2)], for which the pEC50 (read-out: 229E Mpro EC50) is below 4.52.

As to `COc1cccc2[nH]c(C(=O)N[C@@H](CC(C)C)C(=O)N[C@@H](CC3CCNC3=O)C(C#N)NCc3ccccc3)cc12` (single isomer, unassigned) [507 (Isomer 2.1)], the pEC50 (read-out: 229E Mpro EC50) was above 5.70.

With `CCNC(C#N)[C@H](C[C@@H]1CCNC1=O)NC(=O)[C@H](CC(C)C)NC(=O)c1cc2c(OC)cccc2[nH]1` (single isomer, unassigned) [511 (Isomer 1)], the pEC50 (read-out: 229E Mpro EC50) was above 5.70.

Regarding `CCNC(C#N)[C@H](C[C@@H]1CCNC1=O)NC(=O)[C@H](CC(C)C)NC(=O)c1cc2c(OC)cccc2[nH]1` (single isomer, unassigned) [511 (Isomer 2)], the pEC50 (read-out: 229E Mpro EC50) is above 5.70.

`Cc1ccn(C(CC2CC2)C(=O)N[C@H](C#N)C[C@@H]2CCNC2=O)c(=O)c1NC(=O)OC(C)(C)C` (single isomer, unassigned) [591 (Isomer 2)]: the pEC50 (read-out: 229E Mpro EC50) was below 4.52.

Turning to `COc1cccc2[nH]c(C(=O)N3CC4(CCCCC4)CC3C(=O)N[C@H](C#N)C[C@@H]3CCCNC3=O)cc12` (single isomer, unassigned) [603a (Isomer 1)], under “read-out: 229E Mpro EC50”, the pEC50 was above 5.70.

Consider `COc1cccc2[nH]c(C(=O)N[C@@H](CC(C)C)C(=O)N[C@@H](C[C@@H]3CCNC3=O)C(C#N)NCC(=O)O)cc12` (single isomer, unassigned) [653 (Isomer 1)], for which the pEC50 (read-out: 229E Mpro EC50) is above 5.70.

For `COc1cccc2[nH]c(C(=O)N[C@@H](CC(C)C)C(=O)N[C@@H](C[C@@H]3CCNC3=O)C(C#N)NCC(=O)O)cc12` (single isomer, unassigned) [653 (Isomer 2)], for the setting “read-out: 229E Mpro EC50”, the negative logarithm of the EC50 (pEC50) was above 5.70.

Consider `COc1cccc2[nH]c(C(=O)N3CC4(CCC4)CC3C(=O)N[C@H](C#N)C[C@@H]3CCCNC3=O)cc12` (single isomer, unassigned) [719 (Isomer 2)], for which, where the note is “read-out: 229E Mpro EC50”, the pEC50 was above 5.70.

Take `COc1cccc2[nH]c(C(=O)N3CC4(CC3C(=O)N[C@H](C#N)C[C@@H]3CCCNC3=O)CC(F)(F)C4)cc12` (single isomer, unassigned) [723 (Isomer 1)]: where the note is “229E Mpro EC50”, the pEC50 is 4.52 to 5.00.

For the molecule `N#C[C@H](C[C@@H]1CCCNC1=O)NC(=O)C1CC2(CCC2)CN1C(=O)c1cc2cccc(Cl)c2[nH]1` (single isomer, unassigned) [729 (Isomer 1)], for the setting “read-out: 229E Mpro EC50”, the pEC50 is above 5.70.

Turning to `N#C[C@H](C[C@@H]1CCCNC1=O)NC(=O)C1CC2(CCC2)CN1C(=O)c1cc2cccc(Cl)c2[nH]1` (single isomer, unassigned) [729 (Isomer 2)], under “read-out: 229E Mpro EC50”, the pEC50 was above 5.70.

For the molecule `COCCOCCOc1cccc2[nH]c(C(=O)NC(CC(C)(C)C)C(=O)NC(C#N)CC3CCCNC3=O)cc12` (single isomer, unassigned) [875 (Isomer 1)], the pEC50 (read-out: 229E Mpro EC50) is above 5.70.
